Source: the supplement of paper PMC12463676, “Small-molecule dissolution of stress granules by redox modulation benefits ALS models” (Nature Chemical Biology, 2025)

How the values were obtained:
lipoamide = compound: NC(=O)CCCCC1CCSS1 [lipoamide]; experiment: thermal stability z-score vs DMSO; higher = more thermally stabilized by treatment; conditions: HeLa, lipoamide concentration 100 µM
Description: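 Cellular thermal proteome profiling in HeLa cells. Cells were treated with 100 µM lipoamide for 1 h, with or without 1 mM arsenate for a further 1 h, then heated to ten temperatures (37-66.3 °C), and soluble protein was quantified by TMT mass spectrometry relative to 0.1% DMSO controls. The thermal stability score (sum of log2 fold changes minus the abundance score) was transformed to a z-score; mean of n = 3 experiments.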

potassium arsenate = compound: O=[As]([O-])(O)O.[K+] [potassium arsenate]; experiment: as above; conditions: HeLa; arsenate concentration 1 mM
Description: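 Cellular thermal proteome profiling in HeLa cells treated with 1 mM arsenate for 1 h (DMSO pretreatment), heated to ten temperatures (37-66.3 °C). Soluble protein was quantified by TMT mass spectrometry relative to DMSO controls; the thermal stability score was transformed to a z-score; mean of n = 3 experiments.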

[1] = arsenate co-treatment: 1 mM arsenate 1 h
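Note: each temperature applied for 3 min, abundance score taken as mean log2 fold change at the two lowest temperatures, z-score obtained by mean subtraction and division by SD.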

UniProt Q2TAA2, sequence (Q2TAA2 whole entry): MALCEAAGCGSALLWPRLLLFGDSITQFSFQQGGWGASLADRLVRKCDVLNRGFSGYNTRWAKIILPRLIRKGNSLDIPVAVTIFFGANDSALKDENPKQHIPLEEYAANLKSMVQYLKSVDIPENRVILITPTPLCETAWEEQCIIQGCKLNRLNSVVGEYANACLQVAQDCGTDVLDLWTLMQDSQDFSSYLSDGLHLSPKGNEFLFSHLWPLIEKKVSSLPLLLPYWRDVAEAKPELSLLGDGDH
UniProt O95210, sequence (O95210 whole entry): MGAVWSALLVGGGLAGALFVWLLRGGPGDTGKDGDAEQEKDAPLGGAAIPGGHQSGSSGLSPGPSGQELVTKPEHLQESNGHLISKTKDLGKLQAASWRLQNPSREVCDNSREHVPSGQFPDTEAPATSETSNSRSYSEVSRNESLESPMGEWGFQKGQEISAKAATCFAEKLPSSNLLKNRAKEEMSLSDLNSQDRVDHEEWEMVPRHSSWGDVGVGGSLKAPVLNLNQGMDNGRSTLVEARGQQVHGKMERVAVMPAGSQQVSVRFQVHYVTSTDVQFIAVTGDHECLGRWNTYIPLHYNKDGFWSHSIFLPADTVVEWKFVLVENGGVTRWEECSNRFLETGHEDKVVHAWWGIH
UniProt P50747, sequence (P50747 whole entry): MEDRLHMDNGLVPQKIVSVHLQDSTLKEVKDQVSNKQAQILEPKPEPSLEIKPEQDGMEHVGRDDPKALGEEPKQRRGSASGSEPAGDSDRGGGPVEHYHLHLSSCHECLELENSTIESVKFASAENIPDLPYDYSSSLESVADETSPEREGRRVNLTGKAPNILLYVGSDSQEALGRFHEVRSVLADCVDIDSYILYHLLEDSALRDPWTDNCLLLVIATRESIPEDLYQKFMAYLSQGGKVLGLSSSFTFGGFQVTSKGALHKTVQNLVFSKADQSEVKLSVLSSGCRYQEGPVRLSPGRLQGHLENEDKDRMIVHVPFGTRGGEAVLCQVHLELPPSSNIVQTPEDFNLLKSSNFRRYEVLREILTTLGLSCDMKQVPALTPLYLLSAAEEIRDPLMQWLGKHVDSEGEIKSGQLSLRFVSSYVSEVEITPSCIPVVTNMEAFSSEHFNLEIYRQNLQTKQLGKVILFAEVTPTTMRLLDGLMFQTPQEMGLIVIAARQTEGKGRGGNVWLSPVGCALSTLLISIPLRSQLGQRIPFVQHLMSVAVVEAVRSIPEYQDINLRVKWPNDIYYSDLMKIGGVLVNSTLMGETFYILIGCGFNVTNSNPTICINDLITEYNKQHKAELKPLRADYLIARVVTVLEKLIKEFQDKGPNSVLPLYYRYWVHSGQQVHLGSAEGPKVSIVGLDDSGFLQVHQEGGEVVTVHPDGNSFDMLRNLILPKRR
UniProt Q9Y2D8, sequence (Q9Y2D8 whole entry): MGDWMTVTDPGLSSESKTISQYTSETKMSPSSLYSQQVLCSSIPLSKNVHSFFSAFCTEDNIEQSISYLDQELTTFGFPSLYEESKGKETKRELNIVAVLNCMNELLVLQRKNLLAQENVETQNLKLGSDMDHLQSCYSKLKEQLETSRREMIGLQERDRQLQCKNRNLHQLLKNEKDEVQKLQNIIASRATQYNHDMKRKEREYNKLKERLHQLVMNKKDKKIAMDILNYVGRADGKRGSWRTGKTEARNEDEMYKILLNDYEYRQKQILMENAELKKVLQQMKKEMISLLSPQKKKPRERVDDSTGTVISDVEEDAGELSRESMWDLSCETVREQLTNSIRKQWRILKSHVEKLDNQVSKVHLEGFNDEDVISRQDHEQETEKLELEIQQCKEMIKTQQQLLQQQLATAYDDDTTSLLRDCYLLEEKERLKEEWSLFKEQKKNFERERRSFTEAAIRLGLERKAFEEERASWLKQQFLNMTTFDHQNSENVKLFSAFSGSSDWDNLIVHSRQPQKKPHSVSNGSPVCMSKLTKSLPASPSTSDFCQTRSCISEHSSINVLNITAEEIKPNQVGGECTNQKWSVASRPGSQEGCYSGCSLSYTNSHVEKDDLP
UniProt P04424, sequence (P04424 whole entry): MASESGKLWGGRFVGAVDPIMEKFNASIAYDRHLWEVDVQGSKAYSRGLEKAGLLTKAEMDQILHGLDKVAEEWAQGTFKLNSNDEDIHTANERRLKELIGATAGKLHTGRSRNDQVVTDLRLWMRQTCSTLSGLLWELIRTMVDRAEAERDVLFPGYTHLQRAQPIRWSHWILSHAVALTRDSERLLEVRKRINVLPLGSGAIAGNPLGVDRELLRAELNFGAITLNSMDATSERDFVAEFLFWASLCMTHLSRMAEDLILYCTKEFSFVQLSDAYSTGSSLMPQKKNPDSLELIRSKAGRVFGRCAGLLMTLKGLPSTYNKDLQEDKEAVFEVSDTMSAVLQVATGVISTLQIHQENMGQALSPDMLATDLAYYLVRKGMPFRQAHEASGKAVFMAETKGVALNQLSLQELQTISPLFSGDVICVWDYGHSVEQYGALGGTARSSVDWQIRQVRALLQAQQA
UniProt Q92791, sequence (Q92791 whole entry): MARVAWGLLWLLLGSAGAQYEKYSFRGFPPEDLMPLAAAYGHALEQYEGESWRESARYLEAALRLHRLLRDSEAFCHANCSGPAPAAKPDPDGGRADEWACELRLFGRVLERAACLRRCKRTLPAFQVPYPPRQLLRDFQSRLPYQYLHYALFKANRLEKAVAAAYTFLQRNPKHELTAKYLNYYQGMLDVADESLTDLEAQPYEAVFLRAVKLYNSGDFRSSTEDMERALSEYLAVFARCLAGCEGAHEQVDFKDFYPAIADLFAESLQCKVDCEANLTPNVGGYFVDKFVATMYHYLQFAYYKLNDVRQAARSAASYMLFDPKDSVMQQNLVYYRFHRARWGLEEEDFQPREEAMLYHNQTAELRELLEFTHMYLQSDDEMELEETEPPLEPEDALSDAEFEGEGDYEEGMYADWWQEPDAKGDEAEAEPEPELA
UniProt Q9UPN6, sequence (Q9UPN6 whole entry): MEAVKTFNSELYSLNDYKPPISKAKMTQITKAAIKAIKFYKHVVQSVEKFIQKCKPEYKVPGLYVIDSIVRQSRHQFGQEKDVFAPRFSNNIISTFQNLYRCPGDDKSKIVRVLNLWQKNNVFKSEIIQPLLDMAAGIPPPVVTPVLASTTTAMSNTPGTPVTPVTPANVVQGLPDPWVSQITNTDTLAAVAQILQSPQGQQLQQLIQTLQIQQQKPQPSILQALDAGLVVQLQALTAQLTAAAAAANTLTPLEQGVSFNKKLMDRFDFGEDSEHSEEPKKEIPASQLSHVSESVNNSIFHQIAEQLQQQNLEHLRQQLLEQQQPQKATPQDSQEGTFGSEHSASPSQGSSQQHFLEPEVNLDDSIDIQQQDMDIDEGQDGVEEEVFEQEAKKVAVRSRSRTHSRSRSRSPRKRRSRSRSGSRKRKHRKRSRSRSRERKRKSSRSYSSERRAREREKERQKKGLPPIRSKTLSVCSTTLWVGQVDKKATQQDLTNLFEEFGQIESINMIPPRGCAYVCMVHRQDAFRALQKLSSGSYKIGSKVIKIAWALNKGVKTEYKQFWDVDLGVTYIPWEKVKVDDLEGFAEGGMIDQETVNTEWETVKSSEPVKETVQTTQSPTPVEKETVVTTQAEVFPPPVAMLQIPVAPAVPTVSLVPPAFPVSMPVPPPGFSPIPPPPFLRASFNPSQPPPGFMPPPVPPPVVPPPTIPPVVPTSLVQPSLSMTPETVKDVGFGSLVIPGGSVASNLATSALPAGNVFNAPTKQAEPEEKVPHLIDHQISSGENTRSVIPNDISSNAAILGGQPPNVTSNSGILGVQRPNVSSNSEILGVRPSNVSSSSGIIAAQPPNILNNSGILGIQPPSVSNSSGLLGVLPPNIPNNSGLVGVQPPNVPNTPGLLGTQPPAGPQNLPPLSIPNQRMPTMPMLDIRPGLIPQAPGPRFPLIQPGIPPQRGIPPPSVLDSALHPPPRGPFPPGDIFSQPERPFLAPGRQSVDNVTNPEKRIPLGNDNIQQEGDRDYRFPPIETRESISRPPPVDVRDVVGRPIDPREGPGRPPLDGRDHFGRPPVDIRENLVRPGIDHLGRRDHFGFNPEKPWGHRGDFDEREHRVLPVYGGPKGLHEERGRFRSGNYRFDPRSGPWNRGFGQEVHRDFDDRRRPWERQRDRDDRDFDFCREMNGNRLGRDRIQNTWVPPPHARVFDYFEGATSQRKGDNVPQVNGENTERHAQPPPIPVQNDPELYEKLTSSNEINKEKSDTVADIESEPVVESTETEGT
UniProt Q15742, sequence (Q15742 whole entry): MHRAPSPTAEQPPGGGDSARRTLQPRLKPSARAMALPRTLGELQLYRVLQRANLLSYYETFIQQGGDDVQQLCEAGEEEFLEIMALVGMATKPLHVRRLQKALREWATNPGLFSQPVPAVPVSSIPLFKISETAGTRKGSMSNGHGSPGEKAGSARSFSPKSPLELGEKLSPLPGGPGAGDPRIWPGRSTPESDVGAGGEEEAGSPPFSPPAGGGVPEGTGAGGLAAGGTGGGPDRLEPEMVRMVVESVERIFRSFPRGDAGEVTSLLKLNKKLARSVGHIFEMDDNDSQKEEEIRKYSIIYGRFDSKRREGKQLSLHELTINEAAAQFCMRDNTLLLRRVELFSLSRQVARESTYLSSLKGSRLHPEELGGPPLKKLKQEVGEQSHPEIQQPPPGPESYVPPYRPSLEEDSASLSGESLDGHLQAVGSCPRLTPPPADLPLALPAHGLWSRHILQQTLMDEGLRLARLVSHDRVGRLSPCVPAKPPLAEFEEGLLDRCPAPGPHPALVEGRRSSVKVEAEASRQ
UniProt Q9NSI2, sequence (Q9NSI2 whole entry): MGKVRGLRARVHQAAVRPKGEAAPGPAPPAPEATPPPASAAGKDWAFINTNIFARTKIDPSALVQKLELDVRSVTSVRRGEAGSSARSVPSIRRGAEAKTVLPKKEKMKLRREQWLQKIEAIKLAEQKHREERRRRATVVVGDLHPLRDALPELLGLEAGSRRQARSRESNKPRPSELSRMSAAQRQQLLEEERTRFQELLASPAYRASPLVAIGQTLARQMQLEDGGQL
UniProt P56134, sequence (P56134 whole entry): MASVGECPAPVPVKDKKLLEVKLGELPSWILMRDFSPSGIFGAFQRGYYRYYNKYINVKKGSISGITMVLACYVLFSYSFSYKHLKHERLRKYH

Target | thermal stability z-score (lipoamide; [1]) | thermal stability z-score (lipoamide; arsenate co-treatment: none) | thermal stability z-score (potassium arsenate)
CBLB (UniProt Q13191) | 0.338 | -0.251 | -0.0258
MDN1 (UniProt Q9NU22) | 0.0494 | 0.0439 | 0.0865
BPGM (UniProt P07738) | -1.9 | -0.479 | -1.82
WIPF2 (UniProt Q8TF74) | 0.726 | 0.703 | 0.0475
PDCD6IP (UniProt Q8WUM4) | 1.3 | 1.06 | 2.4
SSX2IP (UniProt Q9Y2D8) | -0.271 | -0.143 | -0.0542
PDCD6 (UniProt O75340) | 1.77 | 0.818 | 0.623
SSR3 (UniProt Q9UNL2) | -0.665 | -0.443 | 0.0314
FAM8A1 (UniProt Q9UBU6) | -0.425 | -0.579 | -0.315
PELP1 (UniProt Q8IZL8) | 1.14 | 0.206 | 0.449
SPATA20 (UniProt Q8TB22) | 0.172 | 0.136 | -0.121
AAGAB (UniProt Q6PD74) | 0.334 | 0.843 | 2.05
N4BP1 (UniProt O75113) | 0.103 | 0.0755 | -0.0968
FCHSD2 (UniProt O94868) | -0.0527 | -0.175 | -0.184
MKLN1 (UniProt Q9UL63) | -0.128 | -0.114 | -0.403
CHORDC1 (UniProt Q9UHD1) | 0.149 | 0.043 | -0.23
HENMT1 (UniProt Q5T8I9) | -0.37 | -0.0316 | 0.197
CALCOCO2 (UniProt Q13137) | 0.172 | 0.108 | 0.743
TMF1 (UniProt P82094) | -0.551 | -0.475 | -0.126
CRK (UniProt P46108) | 0.951 | 0.233 | 1.2
RPS6KA3 (UniProt P51812) | -0.607 | -0.345 | 0.388
NCL (UniProt P19338) | 0.724 | 0.77 | -0.611
ARF4 (UniProt P18085) | -0.409 | -0.09 | -0.609
AKAP9 (UniProt Q99996) | 0.757 | 1.46 | 1.18
PER1 (UniProt O15534) | 0.107 | -0.119 | -0.023
FKBP9 (UniProt O95302) | -3.58 | -2.22 | 0.508
NAB2 (UniProt Q15742) | -0.402 | -2.02 | 1.18
SCAF8 (UniProt Q9UPN6) | -0.0718 | -0.03 | 0.155

Target | thermal stability z-score (lipoamide; [1]) | thermal stability z-score (lipoamide; arsenate co-treatment: none) | thermal stability z-score (potassium arsenate)
P3H4 (UniProt Q92791) | -4.72 | -3.94 | 0.936
WASF1 (UniProt Q92558) | -0.121 | -0.0242 | -0.375
RPL36 (UniProt Q9Y3U8) | 0.354 | -0.0802 | -1.19
EMC1 (UniProt Q8N766) | -2.01 | -1.43 | 0.695
UQCRC2 (UniProt P22695) | 0.268 | -0.0661 | -2.47
ARFRP1 (UniProt Q13795) | 0.241 | 0.279 | -0.148
PCIF1 (UniProt Q9H4Z3) | 0.0909 | 0.207 | -0.0419
ATP5F1 (UniProt P24539) | -0.648 | -0.133 | 0.226
HLCS (UniProt P50747) | -1.26 | -0.885 | -0.0791
SLC5A6 (UniProt Q9Y289) | -0.586 | -0.512 | 0.342
CARS (UniProt P49589) | -0.705 | -0.132 | -0.416
IAH1 (UniProt Q2TAA2) | 0.672 | 0.79 | -0.173
CDYL (UniProt Q9Y232) | 2.68 | 1.28 | 0.0814
UBXN7 (UniProt O94888) | -0.462 | 0.55 | -0.679
GOLGA1 (UniProt Q92805) | -0.956 | -0.268 | 0.92
ASL (UniProt P04424) | 0.153 | -0.627 | -0.112
ADD1 (UniProt P35611) | -0.281 | -0.308 | -0.913
STBD1 (UniProt O95210) | -0.616 | 0.112 | 0.149
FUNDC2 (UniProt Q9BWH2) | 0.0791 | -0.555 | -0.587
NUDCD2 (UniProt Q8WVJ2) | 0.599 | 0.779 | 0.58
FAM188A (UniProt Q9H8M7) | 0.53 | 0.885 | 1.07
ATP5J2 (UniProt P56134) | 0.46 | 0.37 | -0.0845
FAM207A (UniProt Q9NSI2) | 0.062 | 0.578 | 0.566
ANKHD1 (UniProt Q8IWZ3) | -0.133 | -0.523 | 0.37
PVR (UniProt P15151) | -0.158 | -0.0762 | 0.0637
MYO18A | -0.283 | 0.122 | 0.197
FAM3C (UniProt Q92520) | -1.06 | -0.89 | 0.805
